Literature values in patent EP0424553A1, “Substituted phenoxy alkanols for treatment of contact hypersensitivity” (priority 1989, dated 1991).

Tests used:
rat mast cells = details: mediated by IgE- anti-IgE reaction
[1] = test system: anaphylactic histamine release; details: compared with chlorphenesin

Molecule | degranulation of the rat mast cells (rat mast cells) | anaphylactic histamine release-preventive effect [1]
O=C(O)c1cc(=O)c2c(OCC(O)COc3cccc4oc(C(=O)O)cc(=O)c34)cccc2o1 [cromolyn sodium] | inhibited | 
chlorphenesin succinate |  | much superior to chlorphenesin
